Results: patent US20060111368A1, “Phosphodiesterase inhibitor” (Kyowa Hakko Kogyo Co., Ltd., priority 2002, published 2006)
Structures can show the parent of a compound that is named as a salt.

System: 6-hydroxydopamine (6OHDA)-treated rats
Assay: Test for activity to hyperkinesia in 6-hydroxydopamine (6OHDA)-treated rats
Format: in vivo, rat
Conditions: 50 mg/kg test compound intraperitoneally, then L-DOPA 30 mg/kg and benserazide 7.5 mg/kg orally; vehicle group 1,298±193; 180° rotation = 1 count
Description: Test for Activity to Hyperkinesia in 6-hydroxydopamine (6OHDA)-Treated Rats
When the unilateral nigrostriatal pathway is lesioned with 6-OHDA, sensitivity of dopamine receptors in the striatum on the lesioned side is increased. When a dopamine activity enhancing substance such as L-DOPA is administered thereto, a rotating behavior takes place on the side opposite to the lesioned side. This animal model has been long positioned as an excellent test model of Parkinson's disease, and has been used for research of therapeutic agent for Parkinson's disease [Neurol. Neurobiol. vol. 33, p. 1 (1987)]. […]
After withdrawal of the administration of apomorphine for 14 days, L-DOPA and bensetazide were orally administered to the rats at doses of 100 mg/kg and 25 mg/kg respectively to induce hyperkinesia. At this time, the number of rotations was measured for 60 minutes immediately after the administration. […]
After 7 days from the dividing into groups, the number of rotations for 60 minutes was measured by similar manner as that of above-mentioned. […] Immediately after the administration, 30 mg/kg of L-DOPA and 7.5 mg/kg of benserazide were orally administered to A and B groups, and the number of rotations for 60 minutes was measured every 5 minutes. […]

With Cc1c(-c2ccc(-c3ccccc3CN3CCOCC3)cc2)nc2ccc(F)cc2c1CO [Compound 12, 6-Fluoro-4-hydroxymethyl-3-methyl-2-(2′-morpholinomethylbiphenyl-4-yl)quinoline dihydrochloride] the “total number of rotations for 60 minutes” value was 48±20.
